Laboratory results reported in PMC6259751, “Investigating Spectrum of Biological Activity of 4- and 5-Chloro-2-hydroxy-N-[2-(arylamino)-1-alkyl-2-oxoethyl]benzamides” (Molecules, 2011).
Converted amounts (≈) assume the structure as drawn. “And” between values parts separate entries of the source, which are not always exact repeats. Identical values can stand only once. Like-named read-outs stand apart in the source and are kept apart here.

What was measured:
[1] = tested on: Mycobacterium kansasii MK CNCTC My 235/80; experiment: In vitro antimycobacterial evaluation; type: cell-based; conditions: IC90 value
Candida tropicalis 156 = experiment: In vitro antifungal susceptibility testing (broth microdilution); type: cell-based; conditions: M27-A2 for yeasts, IC80 value
[2] = tested on: Mycobacterium tuberculosis MTB CNCTC My 331/88; experiment: In vitro antimycobacterial evaluation; type: cell-based; conditions: IC90 value
[3] = tested on: Enterococcus sp. J 14365/08; experiment: In vitro antibacterial susceptibility testing (broth microdilution); conditions: read-out: MIC EF
[4] = tested on: Staphylococcus epidermidis H 6966/08; experiment: as above; conditions: read-out: MIC SE
[5] = tested on: Trichophyton mentagrophytes 445; experiment: In vitro antifungal susceptibility testing (broth microdilution); type: cell-based
[6] = tested on: Staphylococcus aureus CCM 4516/08; experiment: In vitro antibacterial susceptibility testing (broth microdilution); conditions: read-out: MIC SA
[7] = tested on: methicilin resistant Staphylococcus aureus H 5996/08; experiment: as above
[8] = tested on: Mycobacterium avium MA CNCTC My 330/88; experiment: In vitro antimycobacterial evaluation; type: cell-based; conditions: IC90 value
[9] = Lipophilicity determination by RP-HPLC (capacity factor k / log k); type: physicochemical; conditions: C18 column, MeOH 70% / H2O 30%, isocratic
Protocol: Hydrophobicities (log P/Clog P) of compounds 8 and 9 were calculated using two commercially available programs (ChemOffice Ultra 10.0 and ACD/LogP) and measured by means of RP-HPLC determination of capacity factors k with subsequent calculation of log k. The procedure was performed under isocratic conditions with methanol as an organic modifier in the mobile phase using an end-capped non-polar C18 stationary RP column. The results are shown in Table 1 and illustrated in Figure 1.
A Waters Alliance 2695 XE HPLC separation module and a Waters Photodiode Array Detector 2996 (Waters Corp., Milford, MA, USA) were used. A Symmetry® C18 5 μm, 4.6 × 250 mm, Part No. WAT054275 (Waters Corp., Milford, MA, USA) chromatographic column was used. The HPLC separation process was monitored by Empower™ 2 Chromatography Data Software, Waters 2009 (Waters Corp., Milford, MA, USA). A mixture of MeOH p.a. (70%) and H2O-HPLC – Mili-Q Grade (30%) was used as a mobile phase. The total flow of the column was 1.0 mL/min, injection volume, 30 μL, column temperature, 30 °C and sample temperature, 10 °C. The detection wavelength of 210 nm was chosen. The KI methanolic solution was used for the dead time (tD) determination. Retention times (tR) were measured in minutes. The capacity factors k were calculated using the Empower™ 2 Chromatography Data Software according to formula k = (tR - tD)/tD, where tR is the retention time of the solute, whereas tD denotes the dead time obtained using an unretained analyte. Log k, calculated from the capacity factor k, is used as the lipophilicity index converted to log P scale.

[10] = 72h, M38-A for moulds, IC50 value, read-out: MIC TM
[11] = 120h, M38-A for moulds, IC50 value, read-out: MIC TM

Compound	MIC ([1]; 14h)	MIC ([1]; 21h)	MIC (Candida tropicalis 156; 24h)	MIC (Candida tropicalis 156; 48h)	MIC ([2]; 14h)	MIC ([2]; 21h)	MIC ([3]; SP.J14365/08, 24 h)	MIC ([3]; SP.J14365/08, 48 h)	MIC ([4]; H6966/08, 24 h)	MIC ([4]; H6966/08, 48 h)	MIC [5, 10]	MIC [5, 11]	MIC ([6]; CCM4516, 24 h)	MIC ([6]; CCM4516, 48 h)	MIC ([7]; MRSA, 24 h, read-out: MIC MRSA)	MIC ([7]; MRSA, 48 h, read-out: MIC MRSA)	MIC ([8]; 14h)	MIC ([8]; 21h)	log k [9]	also measured
C[C@@H](NC(=O)c1cc(Cl)ccc1O)C(=O)Nc1cccc(Cl)c1 [8c, 5-chloro-N-{(1R)-2-[(3-chlorophenyl)amino]-1-methyl-2-oxoethyl}-2-hydroxybenzamide]	62.5 µM (≈ 22.1 µg/mL)	62.5 µM (≈ 22.1 µg/mL)	31.2 µM (≈ 11 µg/mL)	125 µM (≈ 44.2 µg/mL)	62.5 µM (≈ 22.1 µg/mL)	125 µM (≈ 44.2 µg/mL)	> 500 µM	> 500 µM	> 500 µM	> 500 µM	0.49 µM (≈ 0.173 µg/mL)	0.49 µM (≈ 0.173 µg/mL)	> 500 µM	> 500 µM	> 500 µM	> 500 µM	125 µM (≈ 44.2 µg/mL)	250 µM (≈ 88.3 µg/mL)	0.41 and 0.4153	MIC ([5]; conclusions, incubation time not stated, read-out: antifungal activity against Trichophyton mentagrophytes (MIC)): 0.49 µM (≈ 0.173 µg/mL)
O=C(N[C@H](Cc1ccccc1)C(=O)Nc1cccc(Cl)c1)c1cc(Cl)ccc1O [8g, N-{(1S/R)-1-benzyl-2-[(3-chlorophenyl)amino]-2-oxoethyl}-5-chloro-2-hydroxybenzamide]	62.5 µM (≈ 26.8 µg/mL)	62.5 µM (≈ 26.8 µg/mL)	31.2 µM (≈ 13.4 µg/mL)	125 µM (≈ 53.7 µg/mL)	62.5 µM (≈ 26.8 µg/mL)	62.5 µM (≈ 26.8 µg/mL)	> 500 µM	> 500 µM	> 500 µM	> 500 µM	125 µM (≈ 53.7 µg/mL)	125 µM (≈ 53.7 µg/mL)	> 500 µM	> 500 µM	> 500 µM	> 500 µM	32 µM (≈ 13.7 µg/mL)	32 µM (≈ 13.7 µg/mL)	0.70 and 0.7066	
C[C@@H](NC(=O)c1cc(Cl)ccc1O)C(=O)Nc1ccc(Cl)cc1 [8h]	125 µM (≈ 44.2 µg/mL)	250 µM (≈ 88.3 µg/mL)	> 125 µM	> 125 µM	8 µM (≈ 2.83 µg/mL)	16 µM (≈ 5.65 µg/mL)	> 500 µM	> 500 µM	> 500 µM	> 500 µM	> 125 µM	> 125 µM	> 500 µM	> 500 µM	> 500 µM	> 500 µM	125 µM (≈ 44.2 µg/mL)	125 µM (≈ 44.2 µg/mL)	0.4308	
CC(C)[C@H](NC(=O)c1cc(Cl)ccc1O)C(=O)Nc1ccc(Cl)cc1 [8i]	62.5 µM (≈ 23.8 µg/mL)	62.5 µM (≈ 23.8 µg/mL)	> 125 µM	> 125 µM	32 µM (≈ 12.2 µg/mL)	32 µM (≈ 12.2 µg/mL)	31.2 µM (≈ 11.9 µg/mL)	150 µM (≈ 57.2 µg/mL)	31.2 µM (≈ 11.9 µg/mL)	250 µM (≈ 95.3 µg/mL)	> 125 µM	> 125 µM	7.81 µM (≈ 2.98 µg/mL)	15.6 µM (≈ 5.96 µg/mL)	15.6 µM (≈ 5.96 µg/mL)	15.6 µM (≈ 5.96 µg/mL)	62.5 µM (≈ 23.8 µg/mL)	62.5 µM (≈ 23.8 µg/mL)	0.6371	
CC(C)[C@@H](NC(=O)c1cc(Cl)ccc1O)C(=O)Nc1ccc(Cl)cc1 [8j]	62.5 µM (≈ 23.8 µg/mL)	62.5 µM (≈ 23.8 µg/mL)	> 125 µM	> 125 µM	32 µM (≈ 12.2 µg/mL)	32 µM (≈ 12.2 µg/mL)	250 µM (≈ 95.3 µg/mL)	500 µM (≈ 191 µg/mL)	31.2 µM (≈ 11.9 µg/mL)	125 µM (≈ 47.7 µg/mL)	62.5 µM (≈ 23.8 µg/mL)	62.5 µM (≈ 23.8 µg/mL)	7.81 µM (≈ 2.98 µg/mL)	7.81 µM (≈ 2.98 µg/mL)	7.81 µM (≈ 2.98 µg/mL)	7.81 µM (≈ 2.98 µg/mL)	62.5 µM (≈ 23.8 µg/mL)	62.5 µM (≈ 23.8 µg/mL)	0.6125	MIC ([7]; read-out: activity against methicillin-resistant Staphylococcus aureus (MIC)): 7.81 µM (≈ 2.98 µg/mL)
O=C(CNC(=O)c1cc(Cl)ccc1O)Nc1ccc(Cl)c(Cl)c1 [8m]	125 µM (≈ 46.7 µg/mL)	500 µM (≈ 187 µg/mL)	> 125 µM	> 125 µM	125 µM (≈ 46.7 µg/mL)	500 µM (≈ 187 µg/mL)	> 125 µM	> 125 µM	> 125 µM	> 125 µM	> 125 µM	> 125 µM	> 125 µM	> 125 µM	> 125 µM	> 125 µM	62.5 µM (≈ 23.4 µg/mL)	500 µM (≈ 187 µg/mL)	0.4971	
C[C@H](NC(=O)c1cc(Cl)ccc1O)C(=O)Nc1ccc(Cl)c(Cl)c1 [8n]	62.5 µM (≈ 24.2 µg/mL)	500 µM (≈ 194 µg/mL)	> 125 µM	> 125 µM	32 µM (≈ 12.4 µg/mL)	32 µM (≈ 12.4 µg/mL)	> 500 µM	> 500 µM	> 500 µM	> 500 µM	> 125 µM	> 125 µM	> 500 µM	> 500 µM	> 500 µM	> 500 µM	32 µM (≈ 12.4 µg/mL)	62.5 µM (≈ 24.2 µg/mL)	0.6698	
